{"source": "paper PMC8138767", "about": "“Intrinsically disordered substrates dictate SPOP subnuclear localization and ubiquitination activity” (The Journal of Biological Chemistry, 2021)", "origin": "cited, not measured here", "key": {"SPOP": {"system": "SPOP", "settings": "in phase-separated droplets in cells; cited from earlier work", "excerpt": "SPOP derives its name from the […]. Specifically, SPOP colocalizes with nuclear speckles but has also been reported in other subnuclear compartments ([24], [26]). The nuclear speckles that house SPOP in the absence of high concentrations of substrate are liquid-like in nature ([21]). The SPOP substrate DAXX typically localizes to promyelocytic leukemia bodies ([27])."}, "SPOP28–359": {"molecular_target": "T1, SPOP28–359 (Homo sapiens, UniProt O43791)", "T1 construct": "A plasmid encoding His–SUMO–SPOP human residues 28 to 359; His-SUMO (N, cleaved yes); made in house; host or cells: E. coli Rosetta BL-21(DE3)", "T1 sequence (O43791 28-359)": "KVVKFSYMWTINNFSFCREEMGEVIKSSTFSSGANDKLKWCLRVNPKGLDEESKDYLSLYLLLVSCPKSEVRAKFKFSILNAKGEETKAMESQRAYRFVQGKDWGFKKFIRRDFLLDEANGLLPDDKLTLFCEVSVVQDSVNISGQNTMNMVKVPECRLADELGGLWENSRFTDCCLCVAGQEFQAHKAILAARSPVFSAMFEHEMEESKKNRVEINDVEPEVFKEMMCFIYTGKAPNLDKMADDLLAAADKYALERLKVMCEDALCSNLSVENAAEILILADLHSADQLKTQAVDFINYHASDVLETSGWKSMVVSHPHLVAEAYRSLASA", "settings": "substrates with six (DAXX) and seven (AR) SB motifs; cited from earlier work", "excerpt": "We next sought to assess the role of SPOP oligomerization in the SPOP–Pdx1 interaction and saw a near 10-fold enhancement in binding affinity of Pdx1 to oligomeric SPOP28–359 compared with SPOP–MATH (Fig. 5B and Table S4) in agreement with previous similar observations ([22], [23]). Concentration-dependent SPOP self-association results in an ensemble of oligomeric species with sizes spanning from dimers to large multimers ([21]). SPOP substrates DAXX and AR are also multivalent for SPOP; they contain six and seven SB motifs, respectively, which dramatically enhances their affinities for SPOP28 ..."}}, "data": [{"substance": "AR: androgen receptor, SPOP substrate with seven SB motifs", "values": [{"measurement": "SPOP-mediated polyubiquitination in cells", "setting": "SPOP", "value": "robust SPOP-mediated polyubiquitination"}, {"measurement": "affinity for SPOP28–359 relative to SPOP–MATH", "setting": "SPOP28–359", "value": "dramatically enhances their affinities for SPOP28–359 relative to SPOP–MATH"}]}]}
